According to paper PMC7044277 (Nature Communications, 2020):
Values joined by “and” are separate entries in the source; they are usually repeats but may differ in a detail not shown here. Equal values may be shown once.

Tests used:
Assay type in all cases: cell-based
320 non-olfactory GPCRs [1] = molecular target: T1, 320 non-olfactory GPCRs (Homo sapiens, UniProt Q96RI0)
T1 construct: expressed in transfected cells; host or cells: HTLA cells

320 non-olfactory GPCRs [2] = molecular target: T2, 320 non-olfactory GPCRs (Homo sapiens, UniProt P30556)
T2 construct: expressed in transfected cells; host or cells: HTLA cells
T2 sequence (P30556 whole entry): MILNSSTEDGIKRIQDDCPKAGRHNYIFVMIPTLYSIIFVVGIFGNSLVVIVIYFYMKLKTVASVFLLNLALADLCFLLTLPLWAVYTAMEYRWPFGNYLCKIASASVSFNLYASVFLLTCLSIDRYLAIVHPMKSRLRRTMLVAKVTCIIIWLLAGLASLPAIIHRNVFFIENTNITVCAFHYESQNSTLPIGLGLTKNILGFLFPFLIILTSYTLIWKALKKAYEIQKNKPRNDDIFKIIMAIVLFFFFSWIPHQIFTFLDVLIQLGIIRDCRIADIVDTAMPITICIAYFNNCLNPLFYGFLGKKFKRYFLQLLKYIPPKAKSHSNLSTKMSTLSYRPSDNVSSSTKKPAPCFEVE

320 non-olfactory GPCRs [3] = molecular target: T3, 320 non-olfactory GPCRs (Homo sapiens, UniProt Q96LB1); conditions: receptor MRGPRX2; replicate values, Fig_4g
T3 construct: expressed in transfected cells; host or cells: HTLA cells
T3 sequence (Q96LB1 whole entry): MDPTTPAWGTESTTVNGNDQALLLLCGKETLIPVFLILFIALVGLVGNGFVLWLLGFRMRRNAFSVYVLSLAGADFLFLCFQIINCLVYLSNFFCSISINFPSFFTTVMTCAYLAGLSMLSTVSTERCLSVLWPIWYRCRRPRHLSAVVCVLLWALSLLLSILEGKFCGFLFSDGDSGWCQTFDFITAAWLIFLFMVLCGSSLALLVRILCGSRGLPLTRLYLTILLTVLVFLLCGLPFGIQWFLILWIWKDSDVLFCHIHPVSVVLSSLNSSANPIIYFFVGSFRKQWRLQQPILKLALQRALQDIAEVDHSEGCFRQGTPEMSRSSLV

320 non-olfactory GPCRs [4] = molecular target: T4, 320 non-olfactory GPCRs (Homo sapiens, UniProt Q01726); conditions: receptor MC1R; replicate values, Fig_4g
T4 construct: expressed in transfected cells; host or cells: HTLA cells
T4 sequence (Q01726 whole entry): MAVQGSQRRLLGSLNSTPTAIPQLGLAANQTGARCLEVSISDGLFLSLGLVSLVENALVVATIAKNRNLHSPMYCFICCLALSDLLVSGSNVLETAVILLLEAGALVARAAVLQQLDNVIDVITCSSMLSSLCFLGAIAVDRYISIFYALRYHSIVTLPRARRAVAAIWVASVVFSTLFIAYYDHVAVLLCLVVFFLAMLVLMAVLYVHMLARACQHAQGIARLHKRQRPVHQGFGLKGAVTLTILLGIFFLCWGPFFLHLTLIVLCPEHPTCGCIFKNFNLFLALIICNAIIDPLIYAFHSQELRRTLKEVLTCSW
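Wherever Fold of Basal is given: compound tested at 1 µM final concentration.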
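Wherever GPCRome agonism screen response is given: fold over basal response of each receptor without drug.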

T1 sequence (Q96RI0 18-385): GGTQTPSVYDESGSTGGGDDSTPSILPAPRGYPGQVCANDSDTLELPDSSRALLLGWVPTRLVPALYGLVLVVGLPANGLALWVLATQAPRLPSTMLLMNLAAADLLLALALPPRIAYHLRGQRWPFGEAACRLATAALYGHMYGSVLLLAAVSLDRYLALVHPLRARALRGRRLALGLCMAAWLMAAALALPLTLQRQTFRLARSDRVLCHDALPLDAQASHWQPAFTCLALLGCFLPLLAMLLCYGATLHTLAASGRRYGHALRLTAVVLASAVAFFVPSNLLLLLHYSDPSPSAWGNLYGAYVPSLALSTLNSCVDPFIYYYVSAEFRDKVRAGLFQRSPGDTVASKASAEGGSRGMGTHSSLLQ

CCOc1cccc2cc(C(C)NCC3(O)CCCCC3)oc12 (stereo not shown) [O4LE6]
Fold of Basal (320 non-olfactory GPCRs [1]): 0.98 and 0.6043 and 0.591 and 0.7202 | Fold of Basal (320 non-olfactory GPCRs [2]): 1.668 and 2.301 and 2.105 and 2.204 | GPCRome agonism screen response (320 non-olfactory GPCRs [3]): 1.268 and 1.306 and 1.279 and 0.9356 | GPCRome agonism screen response (320 non-olfactory GPCRs [4]): 1.144 and 0.3717 and 0.6675 and 1.8673
